# Results published in patent US20220009920A1 (GB005, Inc., priority 2020, published 2022).
# Assays:
# Assay in all cases: Large panel kinase profiling
# Type in all cases: biochemical
# Conditions in all cases: 1 μM test article, 1 mM ATP
# AKT3 = AKT3 (Homo sapiens, UniProt Q9Y243)
# Method in brief: (§1)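 One compound concentration (1 μM) was screened against each kinase at 1 mM ATP using PhosphoSens CSox-Sensor detection, at 30° C., with fluorescence read every 1 min (Ex 360 nm/Em 485 nm).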
# BMX = biological target: T1, BMX (Homo sapiens, UniProt P51813)
# T1 sequence (P51813 1-675): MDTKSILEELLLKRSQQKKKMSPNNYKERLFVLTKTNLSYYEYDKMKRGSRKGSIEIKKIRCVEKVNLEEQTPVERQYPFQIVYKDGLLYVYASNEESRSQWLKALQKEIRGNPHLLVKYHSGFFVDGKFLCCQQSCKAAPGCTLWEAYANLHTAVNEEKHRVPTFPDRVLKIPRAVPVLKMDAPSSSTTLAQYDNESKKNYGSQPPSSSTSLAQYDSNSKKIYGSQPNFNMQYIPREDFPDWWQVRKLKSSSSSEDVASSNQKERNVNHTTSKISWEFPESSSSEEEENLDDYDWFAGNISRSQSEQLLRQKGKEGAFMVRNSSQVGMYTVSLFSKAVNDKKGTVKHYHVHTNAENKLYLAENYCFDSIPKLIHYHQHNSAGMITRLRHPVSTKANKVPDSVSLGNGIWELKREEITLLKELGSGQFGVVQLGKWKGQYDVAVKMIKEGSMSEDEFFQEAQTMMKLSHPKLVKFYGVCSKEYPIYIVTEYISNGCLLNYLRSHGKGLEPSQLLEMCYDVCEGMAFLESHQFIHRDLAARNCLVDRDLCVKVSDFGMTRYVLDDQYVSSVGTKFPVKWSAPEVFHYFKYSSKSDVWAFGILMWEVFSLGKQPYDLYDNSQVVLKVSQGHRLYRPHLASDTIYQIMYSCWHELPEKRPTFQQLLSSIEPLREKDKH
# Method in brief: as §1
# CAMK1G = CAMK1G (Homo sapiens, UniProt Q96NX5)
# Method in brief: as §1
# CSNK1A1/CK1A1 = biological target: T2, CSNK1A1/CK1A1 (Homo sapiens, UniProt P48729)
# T2 construct: AssayQuant Technologies, Inc. (service laboratory)
# Method in brief: as §1
# ERN1 = ERN1 (Homo sapiens, UniProt O75460)
# Method in brief: as §1
# FLT1 = biological target: T3, FLT1 (Homo sapiens, UniProt P17948)
# T3 construct: AssayQuant Technologies, Inc. (service provider)
# Method in brief: as §1
# FYNB = biological target: T4, FYNB (Homo sapiens, UniProt P06241)
# T4 construct: AssayQuant Technologies, Inc. (service provider)
# Method in brief: as §1
# HIPK2 = biological target: T5, HIPK2 (Homo sapiens, UniProt Q9H2X6)
# T5 construct: AssayQuant Technologies, Inc. (service provider)
# Method in brief: as §1
# LTK = LTK (Homo sapiens, UniProt P29376)
# Method in brief: as §1
# MYLK4 = biological target: T6, MYLK4 (Homo sapiens, UniProt Q86YV6)
# T6 construct: AssayQuant Technologies, Inc. (assay service)
# T6 sequence (Q86YV6 1-388): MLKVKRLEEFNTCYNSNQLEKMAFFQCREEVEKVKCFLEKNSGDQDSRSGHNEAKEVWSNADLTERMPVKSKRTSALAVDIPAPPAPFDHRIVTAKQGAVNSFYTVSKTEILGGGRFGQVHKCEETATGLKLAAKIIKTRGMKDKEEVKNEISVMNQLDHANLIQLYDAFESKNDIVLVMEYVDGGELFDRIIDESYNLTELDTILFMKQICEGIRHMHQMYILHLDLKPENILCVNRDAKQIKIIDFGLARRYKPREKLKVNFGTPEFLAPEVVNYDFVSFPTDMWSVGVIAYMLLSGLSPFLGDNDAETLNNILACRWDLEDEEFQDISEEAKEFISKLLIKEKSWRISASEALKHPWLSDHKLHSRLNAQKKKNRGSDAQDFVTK
# Method in brief: as §1
# PKN2 = PKN2 (Homo sapiens, UniProt Q16513)
# Method in brief: as §1
# ROS = ROS (Homo sapiens, UniProt P08922)
# Method in brief: as §1
# RPS6KA4/MSK2 = biological target: T7, RPS6KA4/MSK2 (Homo sapiens, UniProt O75676)
# T7 construct: AssayQuant Technologies, Inc. (contract assay)
# Method in brief: as §1
# TSSK1 = biological target: T8, TSSK1 (Homo sapiens, UniProt Q9BXA7)
# T8 construct: AssayQuant Technologies, Inc. (contract laboratory that ran the panel)
# T8 sequence (Q9BXA7 1-367): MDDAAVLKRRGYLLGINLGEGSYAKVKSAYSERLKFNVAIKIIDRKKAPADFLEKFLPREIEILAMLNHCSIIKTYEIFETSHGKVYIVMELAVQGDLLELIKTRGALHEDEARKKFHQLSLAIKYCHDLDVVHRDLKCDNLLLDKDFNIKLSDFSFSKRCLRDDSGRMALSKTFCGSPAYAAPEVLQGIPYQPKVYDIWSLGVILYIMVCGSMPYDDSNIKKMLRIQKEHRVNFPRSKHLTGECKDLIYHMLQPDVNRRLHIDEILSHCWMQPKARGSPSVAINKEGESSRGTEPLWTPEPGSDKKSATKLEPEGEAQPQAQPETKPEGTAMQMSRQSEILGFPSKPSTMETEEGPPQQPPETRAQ
# Method in brief: as §1
# T7 sequence (O75676 whole entry): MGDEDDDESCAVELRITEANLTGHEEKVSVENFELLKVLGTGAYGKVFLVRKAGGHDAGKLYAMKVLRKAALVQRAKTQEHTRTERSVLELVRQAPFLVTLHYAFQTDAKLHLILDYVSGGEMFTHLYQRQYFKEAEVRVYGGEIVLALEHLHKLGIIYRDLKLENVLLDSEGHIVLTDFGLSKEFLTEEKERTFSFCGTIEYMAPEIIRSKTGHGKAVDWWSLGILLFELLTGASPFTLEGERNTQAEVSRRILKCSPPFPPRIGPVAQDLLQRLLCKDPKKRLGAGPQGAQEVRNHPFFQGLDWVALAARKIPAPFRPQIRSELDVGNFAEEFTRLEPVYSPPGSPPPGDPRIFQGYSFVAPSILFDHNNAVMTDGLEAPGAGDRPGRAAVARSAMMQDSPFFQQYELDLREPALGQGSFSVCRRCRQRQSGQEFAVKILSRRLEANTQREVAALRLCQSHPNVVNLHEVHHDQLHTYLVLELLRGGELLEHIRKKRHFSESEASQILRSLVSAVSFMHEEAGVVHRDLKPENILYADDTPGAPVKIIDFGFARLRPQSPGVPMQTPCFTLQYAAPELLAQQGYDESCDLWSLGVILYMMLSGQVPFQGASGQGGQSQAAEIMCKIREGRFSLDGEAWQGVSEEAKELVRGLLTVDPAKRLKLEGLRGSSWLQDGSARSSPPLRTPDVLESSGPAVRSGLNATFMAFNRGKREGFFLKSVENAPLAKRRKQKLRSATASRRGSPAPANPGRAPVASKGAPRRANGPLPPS
# T4 sequence (P06241 1-534 isoform P06241-2): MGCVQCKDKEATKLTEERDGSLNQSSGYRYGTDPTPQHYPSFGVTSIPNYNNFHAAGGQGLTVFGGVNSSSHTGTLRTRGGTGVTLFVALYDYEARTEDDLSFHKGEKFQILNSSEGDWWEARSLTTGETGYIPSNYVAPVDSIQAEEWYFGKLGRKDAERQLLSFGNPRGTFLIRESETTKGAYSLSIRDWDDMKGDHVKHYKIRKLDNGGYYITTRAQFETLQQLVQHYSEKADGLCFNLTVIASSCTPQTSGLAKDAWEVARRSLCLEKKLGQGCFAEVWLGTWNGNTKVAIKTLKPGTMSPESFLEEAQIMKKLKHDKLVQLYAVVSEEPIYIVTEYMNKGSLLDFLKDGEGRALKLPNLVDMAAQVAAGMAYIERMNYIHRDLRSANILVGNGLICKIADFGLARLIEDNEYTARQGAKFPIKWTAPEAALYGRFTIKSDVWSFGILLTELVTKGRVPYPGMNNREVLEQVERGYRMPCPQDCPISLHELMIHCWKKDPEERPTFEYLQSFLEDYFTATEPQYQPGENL
# T5 sequence (Q9H2X6 whole entry, species assumed): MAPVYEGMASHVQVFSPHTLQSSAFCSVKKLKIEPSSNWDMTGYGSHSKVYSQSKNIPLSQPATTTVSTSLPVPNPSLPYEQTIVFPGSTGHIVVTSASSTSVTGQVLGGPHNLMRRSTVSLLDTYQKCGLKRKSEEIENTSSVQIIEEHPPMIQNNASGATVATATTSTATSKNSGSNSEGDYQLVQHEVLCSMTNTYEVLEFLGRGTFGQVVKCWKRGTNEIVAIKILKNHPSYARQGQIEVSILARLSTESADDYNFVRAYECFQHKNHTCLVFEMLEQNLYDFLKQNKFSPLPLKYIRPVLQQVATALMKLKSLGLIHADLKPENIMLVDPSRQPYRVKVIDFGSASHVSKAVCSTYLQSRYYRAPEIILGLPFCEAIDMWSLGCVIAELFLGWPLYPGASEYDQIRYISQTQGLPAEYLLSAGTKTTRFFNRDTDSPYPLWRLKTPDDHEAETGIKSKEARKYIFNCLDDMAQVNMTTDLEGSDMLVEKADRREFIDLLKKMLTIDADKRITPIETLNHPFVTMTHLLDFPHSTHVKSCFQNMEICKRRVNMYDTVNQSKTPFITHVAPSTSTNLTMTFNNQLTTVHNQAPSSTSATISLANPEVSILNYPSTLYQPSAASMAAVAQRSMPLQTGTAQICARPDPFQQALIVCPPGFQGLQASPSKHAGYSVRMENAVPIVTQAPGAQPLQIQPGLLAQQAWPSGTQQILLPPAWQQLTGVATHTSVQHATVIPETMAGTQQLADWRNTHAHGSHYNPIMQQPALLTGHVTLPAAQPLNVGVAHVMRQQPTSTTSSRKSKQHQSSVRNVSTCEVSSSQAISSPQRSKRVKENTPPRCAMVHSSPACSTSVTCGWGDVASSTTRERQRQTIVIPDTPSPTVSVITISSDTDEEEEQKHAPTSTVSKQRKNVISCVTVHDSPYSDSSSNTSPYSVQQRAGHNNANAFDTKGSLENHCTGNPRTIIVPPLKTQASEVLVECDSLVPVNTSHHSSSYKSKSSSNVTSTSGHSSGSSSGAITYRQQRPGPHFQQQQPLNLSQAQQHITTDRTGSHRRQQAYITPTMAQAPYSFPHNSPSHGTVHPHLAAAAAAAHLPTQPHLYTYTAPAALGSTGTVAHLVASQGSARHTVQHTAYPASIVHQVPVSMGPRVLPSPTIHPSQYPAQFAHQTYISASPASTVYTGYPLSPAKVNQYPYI
# T3 sequence (P17948 27-1338, species assumed): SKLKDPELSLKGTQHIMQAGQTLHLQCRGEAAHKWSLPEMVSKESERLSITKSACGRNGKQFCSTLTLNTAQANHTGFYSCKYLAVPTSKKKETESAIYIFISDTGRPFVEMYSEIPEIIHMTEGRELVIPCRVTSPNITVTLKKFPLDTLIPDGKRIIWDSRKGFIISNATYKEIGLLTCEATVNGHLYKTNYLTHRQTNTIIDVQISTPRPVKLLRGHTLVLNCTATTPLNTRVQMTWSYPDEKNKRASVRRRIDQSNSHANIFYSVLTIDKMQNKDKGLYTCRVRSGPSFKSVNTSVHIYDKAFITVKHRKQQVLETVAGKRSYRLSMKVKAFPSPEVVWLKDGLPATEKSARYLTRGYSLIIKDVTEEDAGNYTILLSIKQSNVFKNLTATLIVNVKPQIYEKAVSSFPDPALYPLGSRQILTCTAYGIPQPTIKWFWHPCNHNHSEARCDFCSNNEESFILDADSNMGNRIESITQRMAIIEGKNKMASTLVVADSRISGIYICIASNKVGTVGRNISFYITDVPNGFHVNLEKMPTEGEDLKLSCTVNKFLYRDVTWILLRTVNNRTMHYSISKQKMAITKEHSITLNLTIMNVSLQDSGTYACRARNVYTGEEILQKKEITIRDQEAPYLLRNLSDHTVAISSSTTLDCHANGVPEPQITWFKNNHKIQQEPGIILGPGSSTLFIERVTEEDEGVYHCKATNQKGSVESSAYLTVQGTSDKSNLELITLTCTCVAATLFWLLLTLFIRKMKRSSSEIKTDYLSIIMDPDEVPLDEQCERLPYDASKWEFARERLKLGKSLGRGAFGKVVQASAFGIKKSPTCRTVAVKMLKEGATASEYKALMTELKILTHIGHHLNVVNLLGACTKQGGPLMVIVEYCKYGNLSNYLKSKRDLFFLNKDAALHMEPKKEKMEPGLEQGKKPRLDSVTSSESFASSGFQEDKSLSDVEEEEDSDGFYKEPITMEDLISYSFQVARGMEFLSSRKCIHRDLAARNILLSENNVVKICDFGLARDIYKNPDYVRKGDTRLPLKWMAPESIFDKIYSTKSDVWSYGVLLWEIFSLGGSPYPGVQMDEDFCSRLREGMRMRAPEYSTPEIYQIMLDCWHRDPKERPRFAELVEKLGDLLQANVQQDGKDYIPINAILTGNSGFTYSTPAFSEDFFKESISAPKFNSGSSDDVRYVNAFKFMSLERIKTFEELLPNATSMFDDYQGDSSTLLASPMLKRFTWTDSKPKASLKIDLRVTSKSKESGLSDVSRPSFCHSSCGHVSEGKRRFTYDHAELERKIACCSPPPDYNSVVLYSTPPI
# Sequence of PKN2 (Q16513 whole entry, species assumed): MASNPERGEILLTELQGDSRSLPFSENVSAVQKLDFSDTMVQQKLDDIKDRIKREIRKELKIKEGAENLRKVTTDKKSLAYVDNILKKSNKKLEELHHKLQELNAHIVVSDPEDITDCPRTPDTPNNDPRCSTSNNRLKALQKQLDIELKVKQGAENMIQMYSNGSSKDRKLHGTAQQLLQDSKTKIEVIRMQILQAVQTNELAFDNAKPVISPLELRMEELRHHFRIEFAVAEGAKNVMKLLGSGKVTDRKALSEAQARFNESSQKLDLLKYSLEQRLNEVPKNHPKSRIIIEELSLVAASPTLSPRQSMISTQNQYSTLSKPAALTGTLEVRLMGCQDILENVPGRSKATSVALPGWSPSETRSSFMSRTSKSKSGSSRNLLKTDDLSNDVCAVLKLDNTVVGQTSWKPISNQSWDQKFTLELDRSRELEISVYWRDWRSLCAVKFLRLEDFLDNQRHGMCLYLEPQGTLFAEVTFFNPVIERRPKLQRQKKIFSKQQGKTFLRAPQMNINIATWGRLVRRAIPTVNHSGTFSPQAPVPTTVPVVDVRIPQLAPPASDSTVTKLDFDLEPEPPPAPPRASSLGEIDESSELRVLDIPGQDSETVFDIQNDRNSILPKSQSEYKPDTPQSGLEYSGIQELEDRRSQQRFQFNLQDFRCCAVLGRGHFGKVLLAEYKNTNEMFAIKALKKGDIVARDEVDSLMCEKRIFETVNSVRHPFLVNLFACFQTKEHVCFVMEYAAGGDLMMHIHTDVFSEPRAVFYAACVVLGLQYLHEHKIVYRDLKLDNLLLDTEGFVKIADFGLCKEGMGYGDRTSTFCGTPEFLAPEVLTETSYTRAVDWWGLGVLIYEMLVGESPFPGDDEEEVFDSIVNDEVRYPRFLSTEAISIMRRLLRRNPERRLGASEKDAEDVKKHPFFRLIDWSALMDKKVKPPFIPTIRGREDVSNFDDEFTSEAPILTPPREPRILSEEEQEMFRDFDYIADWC
smiles,measurement,setting,value
"C=CC(=O)N1CCCC(c2c(F)cc(C(N)=O)c3[nH]c4c(c23)CCCCC4)C1 (single isomer, unassigned) [Compound 5-6]",inhibition at 1 µM,AKT3,-14.4%
same,inhibition at 1 µM,BMX,42%
same,inhibition at 1 µM,CAMK1G,15.6%
same,inhibition at 1 µM,CSNK1A1/CK1A1,9.6%
same,inhibition at 1 µM,ERN1,-5.4%
same,inhibition at 1 µM,FLT1,12.1%
same,inhibition at 1 µM,FYNB,21%
same,inhibition at 1 µM,HIPK2,-18.6%
same,inhibition at 1 µM,LTK,0.6%
same,inhibition at 1 µM,MYLK4,29.7%
same,inhibition at 1 µM,PKN2,0.7%
same,inhibition at 1 µM,ROS,-35.7%
same,inhibition at 1 µM,RPS6KA4/MSK2,-6.1%
same,inhibition at 1 µM,TSSK1,7.3%
"C=CC(=O)N1CCC[C@@H](c2c(F)cc(C(N)=O)c3[nH]c4c(c23)CC2(CC4)CC2)C1 [Compound 6-2, (S)-5-(1-acryloylpiperidin-3-yl)-6-fluoro-1,2,4,9-tetrahydrospiro[carbazole-3,1′-cyclopropane]-8-carboxamide]",inhibition at 1 µM,AKT3,-16.3%
same,inhibition at 1 µM,BMX,86%
same,inhibition at 1 µM,CAMK1G,19.6%
same,inhibition at 1 µM,CSNK1A1/CK1A1,11.2%
same,inhibition at 1 µM,ERN1,3.1%
same,inhibition at 1 µM,FLT1,20.7%
same,inhibition at 1 µM,FYNB,-20%
same,inhibition at 1 µM,HIPK2,-55.4%
same,inhibition at 1 µM,LTK,18.3%
same,inhibition at 1 µM,MYLK4,-30.5%
same,inhibition at 1 µM,PKN2,16.2%
same,inhibition at 1 µM,ROS,-3.6%
same,inhibition at 1 µM,RPS6KA4/MSK2,-23.2%
same,inhibition at 1 µM,TSSK1,-3%
"C=CC(=O)N1CCC[C@@H](c2c(F)cc(C(N)=O)c3[nH]c4c(c23)CCC4)C1 [Compound 10-2, (S)-8-(1-acryloylpiperidin-3-yl)-7-fluoro-1,2,3,4-tetrahydrocyclo-penta[b]indole-5-carboxamide]",inhibition at 1 µM,AKT3,-19.4%
same,inhibition at 1 µM,BMX,65.2%
same,inhibition at 1 µM,CAMK1G,9.7%
same,inhibition at 1 µM,CSNK1A1/CK1A1,-2.8%
same,inhibition at 1 µM,ERN1,-2.9%
same,inhibition at 1 µM,FLT1,8.6%
same,inhibition at 1 µM,FYNB,-36.2%
same,inhibition at 1 µM,HIPK2,-66.1%
same,inhibition at 1 µM,LTK,24.4%
same,inhibition at 1 µM,MYLK4,-21.1%
same,inhibition at 1 µM,PKN2,7.5%
same,inhibition at 1 µM,ROS,-22%
same,inhibition at 1 µM,RPS6KA4/MSK2,-21.2%
same,inhibition at 1 µM,TSSK1,14%
